Values quoted from earlier work as cited in patent US20020198176A1, “Treatment of psoriasis with matrix metalloproteinase inhibitors” (priority 2000, published 2002).
pIC50: −log10 of the molar value.

System: MMP
Details: in vitro; read-out: IC50 (50% reduction of the MMP enzymatic activity in vitro)

pIC50: 4.22 to 5.66
Structure (SMILES): O=C(C[C@H](CSc1ccccc1)C(=O)O)c1ccc(-c2ccc(Cl)cc2)cc1 [BAY 12-9566]
